# Measured values reported in patent publication EP4775209A1 (Ascentawits Pharmaceuticals, Ltd., priority 2023, dated 2025).
# Legend:
# [1] = Phase I clinical trial of AST-3424 in China: blood pharmacokinetics compared with US data; type: in vivo, human; conditions: Chinese and American patients, printed as 'almost lower than'
# [2] = Toxicokinetics (D1+D8/21 Days) in rats; type: in vivo, Sprague-Dawley (SD) rats; conditions: AST-3424 3, 10, 30 mg/kg on D1, D8, D22, D29
# [3] = Toxicokinetics (D1+D8/21 Days) in monkeys; type: in vivo, cynomolgus monkeys
# [4] = test system: human lung cancer (H460-GFP) subcutaneous CDX model; test: Human lung cancer CDX efficacy model (QW×2 regimen); type: in vivo, nude mice; conditions: 15 mg/kg, BIW×4, I.V.; P<0.01
# Protocol: Images of tumor burden in mice were non-invasively collected twice a week by a Fluor Vivo Model 100 imaging system, and the mean value of tumor area in each group was calculated based on imaging analysis results. […] The data from this experiment are the data for the H460 model in Example 3-1 of the aforementioned Patent Application 2 (see Table 5 and Figure 5 of this application).
# [5] = test system: HuPrime® pancreatic cancer PA9451 subcutaneous xenograft model; test: Pancreatic cancer PA9451 subcutaneous xenograft efficacy model; type: in vivo, BALB/c nude mice; conditions: 50 mg/kg, QD×30
# [6] = test system: HuPrime® pancreatic cancer PA1170 subcutaneous xenograft model; test: Pancreatic cancer PA1170 subcutaneous xenograft efficacy model; type: in vivo, BALB/c nude mice; conditions: 50 mg/kg, QD×30
# [7] = test system: HuPrime® lung cancer LU5173 subcutaneous xenograft model; conditions: day 32 after first administration, AST-3424 1 mg/kg QD×5, 16 days off
# Text: (§1) For the experimental procedures and relevant evaluation indicators of the aforementioned solid tumor animal efficacy models, please refer to Examples 7, 8, and 9 in Patent Application 1, namely PCT/US2016/062114, with Publication No. WO2017/087428 (corresponding to Chinese Application CN201680044608.1, with Publication No. CN108290911B), Examples 3 and 4 in Patent Application 2, namely PCT/CN2021/078115, with Publication No. WO2022178821, and Research Literature 1. The aforementioned non-clinical animal efficacy models (PDX) mentioned in the present application are all similar to those in the aforementioned literatures, and the specific operation procedures thereof are not described herein again.
# The LU5173 is a HuPrime® xenograft model established from a lung cancer (small cell lung carcinoma) tumor of a patient.
# Efficacy was evaluated based on the relative tumor growth inhibition (TGI, %), and safety was evaluated based on animal body weight changes and mortality.
# [8] = test system: HuPrime® lung cancer LU5161 subcutaneous xenograft model; conditions: day 29 after first administration, AST-3424 1 mg/kg QD×5, 16 days off
# Text: as §1
# LU5161 is a HuPrime® xenograft model established from a lung tumor (small cell lung cancer) of a patient.
# (§2) Efficacy was evaluated based on the relative tumor growth inhibition rate (TGI, %), and safety was evaluated based on animal body weight changes and mortality.
# [9] = test system: HuPrime® pancreatic cancer PA2637 subcutaneous xenograft model; conditions: Day 36 after first administration, AST-3424 1 mg/kg QD×5, 16 days off
# Text: as §1
# PA2637 is a HuPrime® xenograft model established from a pancreatic cancer tumor of a patient.
# as §2
structure (smiles),measurement,setting,value
O=P(O)(N1CC1)N1CC1 [AST-2660],concentrations after 8 hours,[1],lower than 1 ng/ml
same,exposure on Day 29 compared to Day 1,[2],decreased
same,exposure to AST-2660 as % of the AST-3424 exposure,[3]; Day 1,27.2%
same,exposure to AST-2660 as % of the AST-3424 exposure,[3]; Day 29,11.0%
"CC(=O)O[C@H]1C(=O)[C@@]2(C)[C@H]([C@H](OC(=O)c3ccccc3)[C@]3(O)C[C@H](OC(=O)[C@H](O)[C@@H](NC(=O)c4ccccc4)c4ccccc4)C(C)=C1C3(C)C)[C@]1(OC(C)=O)CO[C@@H]1C[C@@H]2O [Taxol, reference compound]",TGI,[4],64%
"O=C(c1cc(Cc2n[nH]c(=O)c3ccccc23)ccc1F)N1CCN(C(=O)C2CC2)CC1 [olaparib, reference compound]",TGI (%),"[5]; Day 36, P < 0.001",47.88%
same,mean tumor volume,[5]; Day 36 after first administration,344.84 mm^3
same,TGI (%),"[6]; Day 30, P > 0.05",57.66%
same,mean tumor volume,[6]; Day 30 after first administration,517.75 mm^3
"O=P1(NCCCl)OCCCN1CCCl (stereo not drawn) [ifosfamide, reference compound]",TGI (%),"[7]; QD×5 (P < 0.001), ifosfamide 6.0 mg/kg QD×5/week for 2 weeks (p > 0.05)",44.45%
same,mean tumor volume,"[7]; QD×5, ifosfamide 6.0 mg/kg QD×5/week for 2 weeks, vehicle 2276.68",1229.15 mm^3
same,TGI (%),"[8]; QD×5 (P < 0.001), ifosfamide 60 mg/kg QD×5/week for 2 weeks (p > 0.05)",27.39%
same,mean tumor volume,"[8]; QD×5, ifosfamide 60 mg/kg QD×5/week for 2 weeks, negative control 2238.97",1636.39 mm^3
same,TGI (%),"[9]; QD×5 (P < 0.001), ifosfamide 60 mg/kg QD×5/week for 2 weeks (no statistical difference)",2.74%
same,mean tumor volume,"[9]; QD×5, ifosfamide 60 mg/kg QD×5/week for 2 weeks, vehicle 977.46",938.33 mm^3
